Assay results published in patent US5149365A, “Diorganotin compounds, and agents which have a bactericidal and fungicidal action and contain these compounds” (Schering Aktiengesellschaft, priority 1988, dated 1992).
Where a name gives a salt, the structure may show the parent alone.

Columns and labels:
Poria monticola = test: Filter disk test, Poria monticola; type: cell-based; details: 3 weeks, +30° C.
Description: (§1) The inhibition action against fungi, of the products according to the invention, was tested using the "filter disk test" (cf. Table 2). For this purpose, paper filter disks (.phi. 5.5 cm) were soaked in ethanolic solutions containing various amounts of active substance. After the filters had dried under room conditions, they were placed on Petri dishes containing plate-count agar which had been inoculated with a spore suspension. The nutrient medium used was biomalt agar 8° Bg, and the dishes were incubated for 3 weeks at +30° C. Thereafter, the sizes of the inhibition zones (distance of the fungal growth from the edge of the filter, in mm) around the samples were determined.

Paecilomyces varioti = test: Filter disk test, Paecilomyces varioti; type: cell-based; details: 3 weeks, +30° C.
Description: as §1

Lentinus lepideus = test: Filter disk test, Lentinus lepideus; type: cell-based; details: 3 weeks, +30° C.
Description: as §1

Cladosporum herbarum = test: Filter disk test, Cladosporum herbarum; type: cell-based; details: 3 weeks, +30° C.
Description: as §1

Escherichia coli = test: Agar diffusion test, Escherichia coli; type: cell-based; details: 0: no inhibition action
Description: (§2) DST agar was inoculated with 1 drop of a Muller-Hinton broth of the test organisms, diluted 1 : 10. After a prediffusion period of 2 hours at 22° C., the paper filters which had been soaked with solutions of active substance of various concentrations were placed on the agar. The inhibition zones (distance of the cloudy area from the edge of the paper filter in mm) were determined after an incubation time of 24 hours.

Proteus vulgaris = test: Agar diffusion test, Proteus vulgaris; type: cell-based; details: 0: no inhibition action
Description: as §2

Coniophora puteana = test: Wood block test against Coniophora puteana after leaching treatment (DIN 52 176, DIN EN 84); details: lower: highest amount with attack (weight loss>3%); higher: lowest amount without attack; 16 weeks, 22° C.
Source text: To compare the fungicidal action against Basidiomycetes, small blocks made of pine sapwood (5 cm×2.5 cm×1.5 cm, direction of fiber: 5 cm) were soaked with solutions of graduated concentrations of the active substance DBT-HDO (cf. Example 1) in acetone, based on DIN 52 176.
For comparison reasons, the starting materials di-n-butyltin dichloride and the K salt of N-cyclohexyl-N'-hydroxydiazenium oxide were included in the investigations.
The soaked blocks were kept for 4 weeks in an environmentally-controlled chamber at an air temperature of 20° C. and a relative atmospheric humidity of 65%. They were then subjected to a leaching procedure in accordance with DIN EN 84. […] The effect of the fungi on the individual blocks was determined by calculating the weight losses (based on the dry weights). The limits which were determined in this way and which are expressed by two figures, the lower of which being the highest amount of protective agent (in kg/m^3 of wood) at which an attack still took place (weight loss>3%), and the higher denoting the lowest amount from which an attack no longer took place, are listed in Table 3.

Bacillus subtilis = test: Agar diffusion test, Bacillus subtilis; type: cell-based; details: 0: no inhibition action
Description: as §2

Staphilococcus aureaus = test: Agar diffusion test, Staphilococcus aureaus; type: cell-based; details: 0: no inhibition action
Description: as §2

Orfes = test: EC50 in Orfes (DIN 38412, Part 15); type: in vivo
Source text: *Determination in accordance with DIN 38412, Part 15

Daphnia = test: EC50 in Daphnia (DIN 38412, Part 12); type: in vivo
Source text: **Determination in accordance with DIN 38412, Part 12.

[1] = Weight loss (release) on storage, 6 days at 65° C.; type: physicochemical; details: 6 days 65° C.
Description: As shown by the comparison above, the amount released into the environment during a storage period of 6 days at 65° C. of, for example, TBT-HDO, is nearly six times higher than in the case of DBT-HDO according to the invention.

[2] = 0.1% active substance in soaking solution
[3] = 0.3% active substance in soaking solution
[4] = 0.5% active substance in soaking solution

Structure (SMILES): CCCCCCC[CH2][Sn]([CH2]CCCCCCC)([O]N(N=O)C1CCCCC1)[O]N(N=O)C1CCCCC1 [DOT-HDO, bis(N-cyclohexyldiazeniumdioxy)di-n-octyltin]
- inhibition zone (IZ) (Poria monticola; 0.5% content of the solution): 5-6 mm
- inhibition zone (IZ) (Poria monticola; 1% content of the solution): 8-10 mm
- inhibition zone (IZ) (Poria monticola; 2% content of the solution): 8-10 mm
- inhibition zone (IZ) (Paecilomyces varioti; 0.5% content of the solution): 5-6 mm
- inhibition zone (IZ) (Paecilomyces varioti; 1% content of the solution): 8-10 mm
- inhibition zone (IZ) (Paecilomyces varioti; 2% content of the solution): 10-12 mm
- inhibition zone (IZ) (Lentinus lepideus; 0.5% content of the solution): > 15 mm
- inhibition zone (IZ) (Lentinus lepideus; 1% content of the solution): > 15 mm
- inhibition zone (IZ) (Lentinus lepideus; 2% content of the solution): > 15 mm
- inhibition zone (IZ) (Cladosporum herbarum; 0.5% content of the solution): 10-12 mm
- inhibition zone (IZ) (Cladosporum herbarum; 1% content of the solution): 12-15 mm
- inhibition zone (IZ) (Cladosporum herbarum; 2% content of the solution): > 15 mm

Structure (SMILES): CCC[CH2][Sn]([Cl])([Cl])[CH2]CCC [Di-n-butyltin dichloride]
- Growth (Lentinus lepideus; 1% content of the solution): + +

Structure (SMILES): [O-][N+](=NO)C1CCCCC1 [K-HDO, potassium salt of N-cyclohexyl-N'-hydroxydiazenium oxide]
- zone of inhibition at 0.1 % strength (Escherichia coli; Escherichia coli, 24 h, 0.1% active substance in soaking solution): 0 mm
- zone of inhibition at 0.3 % strength (Escherichia coli; Escherichia coli, 24 h, 0.3% active substance in soaking solution): 0 mm
- zone of inhibition at 0.5 % strength (Escherichia coli; Escherichia coli, 24 h, 0.5% active substance in soaking solution): 0 mm
- zone of inhibition at 0.1 % strength (Proteus vulgaris; Proteus vulgaris, 24 h, 0.1% active substance in soaking solution): 0 mm
- zone of inhibition at 0.3 % strength (Proteus vulgaris; Proteus vulgaris, 24 h, 0.3% active substance in soaking solution): 0 mm
- zone of inhibition at 0.5 % strength (Proteus vulgaris; Proteus vulgaris, 24 h, 0.5% active substance in soaking solution): 0 mm
- zone of inhibition at 0.5 % (Poria monticola; Poria monticola, 504 h, 0.5% content of the solution, read-out: inhibition zone (IZ)): 2 to 3 mm
- zone of inhibition at 1 % (Poria monticola; Poria monticola, 504 h, 1% content of the solution, read-out: inhibition zone (IZ)): 6 to 8 mm
- zone of inhibition at 2 % (Poria monticola; Poria monticola, 504 h, 2% content of the solution, read-out: inhibition zone (IZ)): 10 to 12 mm
- Limits against Coniophora puteana after leaching treatment (Coniophora puteana): 1.8-3.4 kg of product per m^3 of wood
- zone of inhibition at 0.1 % strength (Bacillus subtilis; Bacillus subtilis, 24 h, 0.1% active substance in soaking solution): 4 mm
- zone of inhibition at 0.3 % strength (Bacillus subtilis; Bacillus subtilis, 24 h, 0.3% active substance in soaking solution): 4 mm
- zone of inhibition at 0.5 % strength (Bacillus subtilis; Bacillus subtilis, 24 h, 0.5% active substance in soaking solution): 9 mm
- zone of inhibition at 0.5 % (Paecilomyces varioti; Paecilomyces, 504 h, 0.5% content of the solution, read-out: inhibition zone (IZ)): 5 to 7 mm
- zone of inhibition at 1 % (Paecilomyces varioti; Paecilomyces, 504 h, 1% content of the solution, read-out: inhibition zone (IZ)): 6 to 8 mm
- zone of inhibition at 2 % (Paecilomyces varioti; Paecilomyces, 504 h, 2% content of the solution, read-out: inhibition zone (IZ)): 8 to 10 mm
- zone of inhibition at 0.1 % strength (Staphilococcus aureaus; 24 h, 0.1% active substance in soaking solution): 8 mm
- zone of inhibition at 0.3 % strength (Staphilococcus aureaus; 24 h, 0.3% active substance in soaking solution): 14 mm
- zone of inhibition at 0.5 % strength (Staphilococcus aureaus; 24 h, 0.5% active substance in soaking solution): 19 mm
- zone of inhibition at 0.5 % (Lentinus lepideus; Neolentinus lepideus, 504 h, 0.5% content of the solution, read-out: inhibition zone (IZ)): 4 to 6 mm
- zone of inhibition at 1 % (Lentinus lepideus; Neolentinus lepideus, 504 h, 1% content of the solution, read-out: inhibition zone (IZ)): 10 to 12 mm
- zone of inhibition at 2 % (Lentinus lepideus; Neolentinus lepideus, 504 h, 2% content of the solution, read-out: inhibition zone (IZ)): > 15 mm
- zone of inhibition at 0.5 % (Cladosporum herbarum; 504 h, 0.5% content of the solution, read-out: inhibition zone (IZ)): 4 to 6 mm
- zone of inhibition at 1 % (Cladosporum herbarum; 504 h, 1% content of the solution, read-out: inhibition zone (IZ)): 8 to 10 mm
- zone of inhibition at 2 % (Cladosporum herbarum; 504 h, 2% content of the solution, read-out: inhibition zone (IZ)): 10 to 12 mm

Structure (SMILES): CCCC[CH2][Sn]([CH2]CCCC)([O]N(N=O)C1CCCCC1)[O]N(N=O)C1CCCCC1 [DPT-HDO, bis(N-cyclohexyldiazeniumdioxy)di-n-pentyltin]
- inhibition zone (IZ) (Poria monticola; 0.5% content of the solution): 6-8 mm
- inhibition zone (IZ) (Poria monticola; 1% content of the solution): 8-10 mm
- inhibition zone (IZ) (Poria monticola; 2% content of the solution): 10-12 mm
- inhibition zone (IZ) (Paecilomyces varioti; 0.5% content of the solution): 6-8 mm
- inhibition zone (IZ) (Paecilomyces varioti; 1% content of the solution): 8-10 mm
- inhibition zone (IZ) (Paecilomyces varioti; 2% content of the solution): 10-12 mm
- inhibition zone (IZ) (Lentinus lepideus; 0.5% content of the solution): > 15 mm
- inhibition zone (IZ) (Lentinus lepideus; 1% content of the solution): > 15 mm
- inhibition zone (IZ) (Lentinus lepideus; 2% content of the solution): > 15 mm
- inhibition zone (IZ) (Cladosporum herbarum; 0.5% content of the solution): 2-3 mm
- inhibition zone (IZ) (Cladosporum herbarum; 1% content of the solution): 5-7 mm
- inhibition zone (IZ) (Cladosporum herbarum; 2% content of the solution): 6-8 mm

Structure (SMILES): CCC[CH2][Sn]([CH2]CCC)([O]N(N=O)C1CCCCC1)[O]N(N=O)C1CCCCC1 [DBT-HDO, bis(N-cyclohexyldiazeniumdioxy)di-n-butyltin]
- inhibition zone (Escherichia coli; [2]): 0 mm
- inhibition zone (Escherichia coli; [3]): 2 mm
- inhibition zone (Escherichia coli; [4]): 3 mm
- inhibition zone (Proteus vulgaris; [2]): 12 mm
- inhibition zone (Proteus vulgaris; [3]): 13 mm
- inhibition zone (Proteus vulgaris; [4]): 12 mm
- EC50 in Orfes (Orfes): 0.18 mg/l of water
- inhibition zone (IZ) (Poria monticola; 0.5% content of the solution): 6-8 mm
- inhibition zone (IZ) (Poria monticola; 1% content of the solution): 12-12 mm
- inhibition zone (IZ) (Poria monticola; 2% content of the solution): 12-15 mm
- Limits against Coniophora puteana after leaching treatment (Coniophora puteana): 0.51-0.88 kg of product per m^3 of wood
- EC50 in Daphnia (Daphnia): 4.9 mg/l of water
- Weight loss [1]: 2.3%
- inhibition zone (Bacillus subtilis; [2]): 6 mm
- inhibition zone (Bacillus subtilis; [3]): 11 mm
- inhibition zone (Bacillus subtilis; [4]): 15 mm
- inhibition zone (IZ) (Paecilomyces varioti; 0.5% content of the solution): 6-8 mm
- inhibition zone (IZ) (Paecilomyces varioti; 1% content of the solution): 8-10 mm
- inhibition zone (IZ) (Paecilomyces varioti; 2% content of the solution): 10-12 mm
- inhibition zone (Staphilococcus aureaus; [2]): 8 mm
- inhibition zone (Staphilococcus aureaus; [3]): 10 mm
- inhibition zone (Staphilococcus aureaus; [4]): 10 mm
- inhibition zone (IZ) (Lentinus lepideus; 0.5% content of the solution): > 15 mm
- inhibition zone (IZ) (Lentinus lepideus; 1% content of the solution): > 15 mm
- inhibition zone (IZ) (Lentinus lepideus; 2% content of the solution): > 15 mm
- inhibition zone (IZ) (Cladosporum herbarum; 0.5% content of the solution): 3-5 mm
- inhibition zone (IZ) (Cladosporum herbarum; 1% content of the solution): 5-6 mm
- inhibition zone (IZ) (Cladosporum herbarum; 2% content of the solution): 8-10 mm
